From patent US20140120060A1, “TREATMENT OF RHEUMATOID ARTHRITIS AND ASTHMA USING PI3 KINASE INHIBITORS” (INFINITY PHARMACEUTICALS, INC., priority 2012, published 2014)
Values joined by “and” are separate entries in the source; they are usually repeats but may differ in a detail not shown here. Equal values may be shown once. “Also recorded” adds a separate entry of the source.

How the values were obtained:
[1] = Embryo/fetal developmental toxicity study in rats; conditions: female, rat, in vivo; pregnant rats, last day of dosing, 35 mg/kg/day; read-out: mean AUC0-24 hr at the NOAEL
[2] = test system: TLR9; test: CPG-A induced cytokine production in PBMCs; format: cell-based, human
Protocol: Human PBMCs were stimulated with CPG-A. CPG-A selectively activates PDCs, inducing IFN-α production via TLR9. IFN-α is a PDC cell selective readout. Primary human PBMCs from two normal human donors were used as a source of PDC cells. 200 K cells per well were used. […] Then the cells were treated with the specified concentration of CPG-A for 16 hours. RPMI-5% serum was employed.
(§1) These experiments were conducted using PBMCs.

[3] = Pharmacokinetics in BALB/c mice; format: in vivo, mouse
[4] = test system: developing adjuvant arthritis; test: Freund's complete adjuvant induced rat model of arthritis; format: in vivo
Description: Freund's complete adjuvant induced arthritis in the rat is an experimental model of polyarthritis that has been widely used for nonclinical testing of numerous anti-arthritic agents that are either under nonclinical or clinical investigation, or are currently used as therapeutics in this disease.

[5] = Plasma protein binding, rat plasma; format: in vitro ADME; conditions: 100 μM (41700 ng/mL)
Description: (§2) […]. […] […].

[6] = test system: PBMCs; test: LPS induced cytokine production in PBMCs; format: cell-based, human
Protocol: as §1

[7] = Pharmacokinetics in Sprague-Dawley rats; format: in vivo, rat
[8] = 13-week repeat-dose safety study in cynomolgus monkeys; conditions: both sexes, cynomolgus monkey, in vivo, oral, Day 91, combined sexes, 5 mg/kg/day, read-out: mean AUC0-24 hr at the NOAEL
Protocol: The no observed adverse effect level (NOAEL) in the 13-week rat study was 25 mg/kg/day (150 mg/m^2/day) and the NOAEL in the 13-week monkey study was 5 mg/kg/day (60 mg/m^2/day). On Day 91, the mean AUC0-24 hr values for combined sexes at the NOAELs were 14150 ng*h/mL in the rat, and 4015 ng*h/mL in the monkey.

[9] = Plasma protein binding, monkey plasma; format: in vitro ADME; conditions: 100 μM (41700 ng/mL)
Description: as §2

[10] = test system: B cell; test: B cell proliferation; format: cell-based
[11] = test system: DTH ear swelling; test: Murine model of delayed type hypersensitivity (DNFB); format: in vivo
Protocol: The animals were subsequently challenged with DNFB on the pinna of the ear on day 5 to initiate an inflammatory reaction that was measured 24 hours later.

[12] = molecular target: T1, PI3K-β (Homo sapiens, UniProt P42338); test: PI3K-β specific assay in platelets (thrombin peptide, activated GPIIb/IIIa); format: cell-based
T1 construct: from tissue; host or cells: platelets in whole blood
T1 sequence (P42338 whole entry): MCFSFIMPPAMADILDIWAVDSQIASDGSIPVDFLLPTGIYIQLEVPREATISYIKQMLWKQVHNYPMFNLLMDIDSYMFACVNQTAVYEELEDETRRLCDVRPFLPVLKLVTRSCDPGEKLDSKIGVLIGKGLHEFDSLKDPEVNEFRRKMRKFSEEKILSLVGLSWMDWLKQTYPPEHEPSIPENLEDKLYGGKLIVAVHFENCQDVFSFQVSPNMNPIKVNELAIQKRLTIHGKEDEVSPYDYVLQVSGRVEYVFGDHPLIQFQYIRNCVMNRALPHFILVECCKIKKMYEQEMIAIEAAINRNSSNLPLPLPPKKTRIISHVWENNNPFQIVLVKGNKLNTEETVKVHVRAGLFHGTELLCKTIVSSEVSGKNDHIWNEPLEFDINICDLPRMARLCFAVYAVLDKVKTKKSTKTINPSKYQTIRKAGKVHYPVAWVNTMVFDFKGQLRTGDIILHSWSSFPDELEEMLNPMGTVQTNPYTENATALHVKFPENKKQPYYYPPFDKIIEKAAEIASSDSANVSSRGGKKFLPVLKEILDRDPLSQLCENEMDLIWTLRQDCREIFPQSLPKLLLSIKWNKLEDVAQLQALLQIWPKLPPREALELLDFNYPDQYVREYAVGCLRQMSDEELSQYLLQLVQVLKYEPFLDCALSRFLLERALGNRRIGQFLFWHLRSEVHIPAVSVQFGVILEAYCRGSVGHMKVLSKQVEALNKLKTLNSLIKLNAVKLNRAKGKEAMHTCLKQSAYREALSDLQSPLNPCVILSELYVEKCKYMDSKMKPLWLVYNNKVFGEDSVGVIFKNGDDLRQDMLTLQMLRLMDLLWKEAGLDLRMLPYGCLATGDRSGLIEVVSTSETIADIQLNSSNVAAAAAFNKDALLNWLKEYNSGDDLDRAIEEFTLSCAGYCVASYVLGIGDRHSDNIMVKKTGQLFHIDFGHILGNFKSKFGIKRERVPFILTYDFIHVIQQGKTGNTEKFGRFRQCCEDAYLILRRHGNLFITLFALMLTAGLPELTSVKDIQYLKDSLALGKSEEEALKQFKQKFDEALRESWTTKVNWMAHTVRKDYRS
T1 sequence (P27986 whole entry partner): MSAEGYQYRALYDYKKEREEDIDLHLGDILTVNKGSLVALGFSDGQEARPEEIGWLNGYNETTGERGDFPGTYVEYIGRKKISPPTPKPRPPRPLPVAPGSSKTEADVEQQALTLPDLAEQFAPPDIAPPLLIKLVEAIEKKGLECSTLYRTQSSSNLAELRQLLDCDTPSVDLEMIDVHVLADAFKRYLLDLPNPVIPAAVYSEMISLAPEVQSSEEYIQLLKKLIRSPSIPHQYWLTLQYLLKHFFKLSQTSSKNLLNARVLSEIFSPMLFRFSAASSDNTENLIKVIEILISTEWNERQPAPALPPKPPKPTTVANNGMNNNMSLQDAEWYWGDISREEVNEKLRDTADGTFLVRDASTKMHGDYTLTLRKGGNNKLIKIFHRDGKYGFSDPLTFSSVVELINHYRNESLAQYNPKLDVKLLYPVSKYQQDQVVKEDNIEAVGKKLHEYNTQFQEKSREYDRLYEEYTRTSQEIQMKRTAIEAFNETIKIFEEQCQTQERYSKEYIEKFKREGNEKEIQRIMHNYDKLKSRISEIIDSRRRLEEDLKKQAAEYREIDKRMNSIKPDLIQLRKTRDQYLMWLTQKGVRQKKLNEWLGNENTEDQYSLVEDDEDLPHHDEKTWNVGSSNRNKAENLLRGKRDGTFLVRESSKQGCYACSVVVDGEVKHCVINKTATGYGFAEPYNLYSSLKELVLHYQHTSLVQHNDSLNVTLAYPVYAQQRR

[13] = test system: Murine B-cell; test: Murine B-cell proliferation; format: cell-based; conditions: Mus musculus
[14] = test system: respiratory system; test: Respiratory study in Sprague-Dawley rat; conditions: male rats, single oral dose up to 350 mg/kg
[15] = test system: established type II collagen-induced arthritis; test: Rat collagen-induced arthritis model (established); format: in vivo
Protocol: Etanercept (10 mg/kg) was administered subcutaneously on days 10 and 13 as a positive control. The study was terminated on day 17.

[16] = test system: PBMCs; test: R848 induced cytokine production in PBMCs; format: cell-based, human
Protocol: as §1

[17] = test system: Human B-cell; test: Human B-cell proliferation; format: cell-based
[18] = test system: Caco-2 cell monolayers; test: Membrane permeability in Caco-2 cell monolayers; format: in vitro ADME, human
[19] = molecular target: T2, human P-glycoprotein (Homo sapiens, UniProt P08183); test: Interaction with human P-glycoprotein in Caco-2 cell monolayers; format: in vitro ADME
T2 construct: endogenous in cells; host or cells: Caco-2 cell monolayers
T2 sequence (P08183 whole entry): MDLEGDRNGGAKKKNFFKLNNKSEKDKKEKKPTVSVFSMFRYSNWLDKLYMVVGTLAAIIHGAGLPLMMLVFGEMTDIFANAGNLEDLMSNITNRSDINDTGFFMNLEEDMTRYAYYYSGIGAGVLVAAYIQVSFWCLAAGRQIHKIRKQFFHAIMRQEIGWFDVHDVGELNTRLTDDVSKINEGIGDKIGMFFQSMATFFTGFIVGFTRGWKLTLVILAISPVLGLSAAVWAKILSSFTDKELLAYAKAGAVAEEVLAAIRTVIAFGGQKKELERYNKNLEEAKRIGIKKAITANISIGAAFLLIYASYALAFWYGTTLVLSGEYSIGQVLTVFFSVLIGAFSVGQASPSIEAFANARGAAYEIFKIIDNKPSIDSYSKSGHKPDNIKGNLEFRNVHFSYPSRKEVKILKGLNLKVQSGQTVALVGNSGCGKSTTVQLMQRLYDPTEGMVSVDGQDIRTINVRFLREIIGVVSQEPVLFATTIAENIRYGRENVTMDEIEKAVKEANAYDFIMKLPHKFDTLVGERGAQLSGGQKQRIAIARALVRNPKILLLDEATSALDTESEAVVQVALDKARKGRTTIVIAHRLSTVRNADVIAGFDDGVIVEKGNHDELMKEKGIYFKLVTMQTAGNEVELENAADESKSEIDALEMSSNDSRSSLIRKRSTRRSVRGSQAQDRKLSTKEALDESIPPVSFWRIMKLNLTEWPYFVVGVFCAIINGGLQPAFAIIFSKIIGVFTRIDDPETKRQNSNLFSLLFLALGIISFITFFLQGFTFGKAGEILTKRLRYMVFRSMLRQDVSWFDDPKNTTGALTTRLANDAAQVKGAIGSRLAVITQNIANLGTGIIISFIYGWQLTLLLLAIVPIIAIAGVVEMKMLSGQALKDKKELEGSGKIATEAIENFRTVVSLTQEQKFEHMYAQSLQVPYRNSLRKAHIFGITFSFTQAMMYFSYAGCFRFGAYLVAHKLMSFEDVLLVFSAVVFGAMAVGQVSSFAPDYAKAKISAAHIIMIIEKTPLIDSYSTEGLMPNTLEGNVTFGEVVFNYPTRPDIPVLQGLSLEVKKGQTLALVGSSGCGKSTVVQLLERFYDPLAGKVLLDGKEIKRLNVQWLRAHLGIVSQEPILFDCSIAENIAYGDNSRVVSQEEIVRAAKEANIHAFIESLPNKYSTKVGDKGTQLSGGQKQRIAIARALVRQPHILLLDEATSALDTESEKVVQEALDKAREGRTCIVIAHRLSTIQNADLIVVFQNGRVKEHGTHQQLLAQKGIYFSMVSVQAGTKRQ

[20] = test system: neutrophil migration; test: Neutrophil migration into rat air pouches stimulated with IL-8; format: in vivo
Description: In one embodiment, provided herein is a method for screening for anti-inflammatory or anti-asthma compound in an animal (e.g., rat) pouch assay. In one embodiment, provided herein is a method for screening for anti-inflammatory or anti-asthma compound comprising (a) creating a pouch at the back of an animal (e.g., rat) and introducing a stimuli into the pouch; (b) administrating a compound to the animal; (c) measuring the influx of leukocyte (e.g., neutrophil and/or eosinophil) into the pouch; and (d) comparing the influx of leukocyte to that of a control vehicle; wherein a reduction in the influx of leukocyte indicates the compound is an anti-inflammatory or anti-asthma compound.
The ability of PI3K-δ,γ inhibitors to block leukocyte (e.g., neutrophil) migration was examined in a rat air pouch model. Air pouches were created by subcutaneous air injections into the back of the rats on Days 0 and 3. […] Animals dosed with vehicle only, with or without IL-8 stimulation, served as study controls.

[21] = test system: central nervous system; test: Neurofunctional study (FOB, motor activity) in Sprague-Dawley rat; conditions: male rats

For `C[C@H](Nc1ncnc2[nH]cnc12)c1cc2cccc(Cl)c2c(=O)n1-c1ccccc1` [Compound 292], the AUC(0-t) [1] was 62.2 µg·h/mL, the “CPG-A induced IL-6 production” value ([2]; PBMCs) was “Inhibited” and the “CPG-A induced IL-8 production” value ([2]; PBMCs) was “Inhibited”. The “CPG-A induced TNF-α production” value ([2]; PBMCs) was “Inhibited”, the “CPG-A induced IFN-α production” value ([2]; human PBMCs) was “potently inhibited; also recorded: blocked” and the Foral ([3]; BALB/c mice, PO 10 mg/kg suspension, calculated using AUC0-last) was 7% and 7^i %. For the same compound, the half-life ([3]; BALB/c, mouse, in vivo, iv, 10 mg/kg) was < 2 h, the “reduction of final paw weights” value ([4]; 5 mg/kg BID) was 30% and the “reduction of histopathologic bone resorption” value ([4]; 5 mg/kg BID) was 72%. The “reduction of histopathologic inflammation” value ([4]; 5 mg/kg BID) was 18%, the “inhibition of ankle diameter AUC (d7-14) increase” value (“inhibition … (d7-14) increase” for short) ([4]; 5 mg/kg BID PO days 5-14) was 24% and the “reduction of final paw weights” value ([4]; 10 mg/kg QD) was 23%. The “reduction of histopathologic bone resorption” value ([4]; 10 mg/kg QD) was 67%, the “reduction of histopathologic inflammation” value ([4]; 10 mg/kg QD) was 15% and the “inhibition … (d7-14) increase” value ([4]; 10 mg/kg QD PO days 5-14) was 31%. The “reduction of final paw weights” value ([4]; 50 mg/kg QD) was 98%, the “reduction of histopathologic bone resorption” value ([4]; 50 mg/kg QD) was 100% and the “reduction of histopathologic inflammation” value ([4]; 50 mg/kg QD) was 88%. The “inhibition … (d7-14) increase” value ([4]; 50 mg/kg QD PO days 5-14) was 95%, the “protein bound in rat plasma” value [5] was 85.8% and the “LPS induced IL-1 production” value [6] was “enhanced”. For the same compound, the “LPS induced IL-6 production” value [6] was “enhanced”, the “LPS induced IL-8 production” value [6] was “did not detectably affect” and the “LPS induced TNF-α production” value [6] was “enhanced”. For the same compound, the Foral ([7]; Sprague-Dawley rats, PO 10 mg/kg suspension) was 57%, the half-life ([7]; Sprague-Dawley, rat, in vivo, intravenous, 2 mg/kg) was < 2 h and the AUC(0-t) [8] was 4.01 µg·h/mL. For the same compound, the “protein bound in monkey plasma” value [9] was 76.8%, the EC50 [10] was < 100 nM and the ear swelling ([11]; 0.3, 1, 3 and 10 mg/kg PO) was “Dose dependent inhibition”. For the same compound, the “inhibition of ear swelling vs vehicle control” value ([11]; highest dose group (10 mg/kg PO, 30 minutes prior to DNFB challenge)) was “approximately 50%”, the “window between PI3K-γ and PI3K-β inhibition in whole blood” value [12] was “about 4 fold” and the EC50 [13] was 0.5 nM. For the same compound, the “respiratory parameters (respiratory rate, tidal volume, minute volume)” value [14] was “no Compound 292-related effects”, the “mean ankle diameter at the end of the treatment period vs vehicle” value ([15]; PO QD days 10-16, all doses 0.5-10 mg/kg, not at 0.1 mg/kg) was “significantly decreased” and the “serum IgE levels vs vehicle controls” value ([15]; rat CIA model) was “Significant increases”. The “summed ankle histological scores” value ([15]; rat CIA model) was “prevented inflammation and protected joint bone and cartilage”, the “R848 induced IFN-α” value [16] was “did not detectably affect” and the “R848 induced IL-1” value [16] was “slightly inhibited”. For the same compound, the “R848 induced IL-6” value [16] was “did not detectably affect”, the “R848 induced IL-8” value [16] was “did not detectably affect” and the “R848 induced TNF-α” value [16] was “did not detectably affect”. The EC50 [17] was 0.5 nM, the cell membrane permeability [18] was “moderate” and the P-gp substrate status [19] was “is a P-gp substrate”. For the same compound, the “inhibition of active transport of other P-gp substrates” value [19] was “has the potential to inhibit the active transport of other P-gp substrates”, the “neutrophil influx into IL-8 stimulated air pouches” value ([20]; 1 mg/kg PO) was “only slightly” and the “neutrophil influx into IL-8 stimulated air pouches” value ([20]; 10 and 25 mg/kg PO) was “inhibits; also recorded: significantly blocked”. For the same compound, the locomotor activity ([21]; 2 h after a 350 mg/kg dose) was “Significant decreases”, the “effects on the central nervous system” value ([21]; dose levels ≦50 mg/kg) was “No effects” and the “qualitative or quantitative FOB parameters” value ([21]; single oral dose up to 350 mg/kg, up to 24 h post-dose) was “no changes”.
